# Assay results published in patent publication US8716303B2, “N-(hetero)aryl-pyrrolidine derivatives of pyrazol-4-yl-pyrrolo[2,3-d]pyrimidines and pyrrol-3-yl-pyrrolo[2,3-d]pyrimidines as janus kinase inhibitors” (Incyte Corporation, priority 2009, dated 2014).
# Counter-ions that a name gives are not always drawn.
# Legend:
# [1] = biological target: T1, human JAK1 (a.a. 837-1142) (Homo sapiens, UniProt P23458); experiment: In vitro JAK kinase assay (HTRF, phosphorylation of a biotinylated peptide), JAK1; format: biochemical
# T1 construct: human JAK1 (a.a. 837-1142); His tag (N); made in house; host or cells: insect cells (baculovirus)
# T1 sequence (P23458 849-1154): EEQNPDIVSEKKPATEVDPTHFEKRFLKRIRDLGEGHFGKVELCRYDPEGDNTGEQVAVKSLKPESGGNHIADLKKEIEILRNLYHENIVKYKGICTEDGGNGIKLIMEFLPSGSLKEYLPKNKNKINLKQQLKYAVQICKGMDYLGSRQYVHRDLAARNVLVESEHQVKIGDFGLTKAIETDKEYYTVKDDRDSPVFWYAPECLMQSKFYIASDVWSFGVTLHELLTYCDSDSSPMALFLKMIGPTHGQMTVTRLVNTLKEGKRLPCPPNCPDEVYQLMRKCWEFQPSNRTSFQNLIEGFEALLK
# Summary of the method: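 IC50s come from HTRF detection (Eu-Py20, SA-APC, 40 min binding) after 1 h RT reactions with 500 nM biotinylated peptide in Tris pH 7.8 buffer. ATP either 1 mM or Km-level, 90 μM for JAK1 and 30 μM for JAK2; enzymes are baculovirus-expressed His-tagged catalytic domains (JAK1 837-1142, JAK2 828-1132).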
# Jak2 (a.a. 828-1132) = biological target: T2, Jak2 (a.a. 828-1132) (Homo sapiens, UniProt O60674); experiment: In vitro JAK kinase assay (HTRF, phosphorylation of a biotinylated peptide), JAK2, reported as JAK2/JAK1 ratio; format: biochemical
# T2 construct: Jak2 (a.a. 828-1132); His tag (N); made in house; host or cells: insect cells (baculovirus)
# T2 sequence (O60674 828-1132): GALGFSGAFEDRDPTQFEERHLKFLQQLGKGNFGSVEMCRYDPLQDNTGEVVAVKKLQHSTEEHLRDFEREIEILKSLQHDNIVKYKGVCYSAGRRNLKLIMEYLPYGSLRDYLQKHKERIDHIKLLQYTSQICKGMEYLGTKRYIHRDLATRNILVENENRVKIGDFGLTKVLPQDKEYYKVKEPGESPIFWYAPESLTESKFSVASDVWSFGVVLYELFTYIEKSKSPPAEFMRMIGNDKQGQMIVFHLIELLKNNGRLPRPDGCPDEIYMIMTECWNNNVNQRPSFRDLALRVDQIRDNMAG
IC50 ([1]; Assay Conditions 1 mM ATP) [nM],JAK2/JAK1 IC50 ratio (Jak2 (a.a. 828-1132); Assay Conditions 1 mM ATP),IC50 ([1]; Assay Conditions Km (ATP 90 μM for Jak1)) [nM],"JAK2/JAK1 IC50 ratio (Jak2 (a.a. 828-1132); Assay Conditions Km (ATP 90 μM for Jak1, 30 μM for Jak2))",SMILES
< 50,5.9,,,"FCC([C@@H]1CCN(c2nc3cccnc3o2)C1)n1cc(-c2ncnc3[nH]ccc23)cn1 (stereo partly drawn) [71 (3R- enantiomer), 2-((3R)-3-{2-fluoro-1-[4-(7H-pyrrolo[2,3-d]pyrimidin-4-yl)-1H-pyrazol-1-yl]ethyl}pyrrolidin-1-yl) [1,3]oxazolo[5,4-b]pyridine phosphoric acid salt]"
< 50,40.0,,,"N#CC[C@@H]([C@H]1CCN(c2nc(Br)ccc2F)C1)n1cc(-c2ncnc3[nH]ccc23)cn1.O=C(O)C(F)(F)F.O=C(O)C(F)(F)F [Example 88, (3S)-3-[(3S)-1-(6-bromo-3-fluoropyridin-2-yl)pyrrolidin-3-yl]-3-[4-(7H-pyrrolo[2,3-d]pyrimidin-4-yl)-1H-pyrazol-1-yl]propanenitrile bis(trifluoroacetate)]"
< 50,15.5,,,"N#CCC(C1CCN(c2nccc(C#N)c2C#N)C1)n1cc(-c2ncnc3[nH]ccc23)cn1 (racemic) [Example 39, ±2-(3-{2-cyano-1-[4-(7H-pyrrolo[2,3-d]pyrimidin-4-yl)-1H-pyrazol-1-yl]ethyl}pyrrolidin-1-yl)pyridine-3,4-dicarbonitrile trifluoroacetate]"
< 50,8,,,"N#CC[C@@H]([C@H]1CCN(c2c(F)cccc2C#N)C1)n1cc(-c2ncnc3[nH]ccc23)cn1 [Example 58, 2-((3S)-3-{(1S)-2-cyano-1-[4-(7H-pyrrolo[2,3-d]pyrimidin-4-yl)-1H-pyrazol-1-yl]ethyl}pyrrolidin-l-yl)-3-fluorobenzonitrile trifluoroacetate salt]"
< 50,16.2,,,"COCc1cnc(N2CC[C@H]([C@H](CC#N)n3cc(-c4ncnc5[nH]ccc45)cn3)C2)c(C#N)n1 [Example 141, 3-((3S)-3-{(1S)-2-cyano-1-[4-(7H-pyrrolo[2,3-d]pyrimidin-4-yl)-1H-pyrazol-1-yl]ethyl}pyrrolidin-1-yl)-6-(methoxymethyl)pyrazine-2-carbonitrile trifluoroacetate]"
< 50,>20,,,"N#CC[C@@H]([C@H]1CCN(c2nccc(C(F)(F)F)c2F)C1)n1cc(-c2ncnc3[nH]ccc23)cn1 [Example 66, (3S)-3-{(3S)-1-[3-fluoro-4-(trifluoromethyl)pyridin-2-yl]pyrrolidin-3-yl}-3-[4-(7H-pyrrolo[2,3-d]pyrimidin-4-yl)-1H-pyrazol-1-yl] propanenitrile trifluoroacetate salt]"
100 to 500,>2.5,,,"N#CCC(n1cc(-c2ncnc3[nH]ccc23)cn1)C1(F)CCN(c2nc3cccnc3o2)C1 (single isomer, unassigned) [31, Step 4b, enantiomer 1]"
< 50,4.5,,,"N#CCC(C1CCN(c2scnc2C#N)C1)n1ccc(-c2ncnc3[nH]ccc23)c1 (racemic) [Example 149-2, 5-(3-{2-cyano-1-[3-(7H-pyrrolo[2,3-d]pyrimidin-4-yl)-1H-pyrrol-1-yl]ethyl}pyrrolidin-1-yl)-1,3-thiazole-4-carbonitrile]"
,,< 50,2.9,"N#CCC(C1CCN(c2nc3cnccc3o2)C1)n1cc(-c2ncnc3[nH]ccc23)cn1 (single isomer, unassigned) [Example 11, 3-(1-[1,3]oxazolo[4,5-c]pyridin-2-ylpyrrolidin-3-yl)-3-[4-(7H-pyrrolo[2,3-d]pyrimidin-4-yl)-1H-pyrazol-1-yl]propanenitrile]"
< 50,12.9,,,"N#CCC(C1CCN(c2nc3cccc(Br)c3o2)C1)n1cc(-c2ncnc3[nH]ccc23)cn1.O=C(O)C(F)(F)F (single isomer, unassigned) [Example 159, 3-[1-(7-bromo-1,3-benzoxazol-2-yl)pyrrolidin-3-yl]-3-[4-(7H-pyrrolo[2,3-d]pyrimidin-4-yl)-1H-pyrazol-1-yl]propanenitrile trifluoracetate]"
